In PubChem BioAssay AID272 (DTP/NCI, 2004) one finds T/C data, which are given here for six molecules.

This assay deals with Lewis lung carcinoma i.m., BDF1 mice, T/C %. Put plainly: NCI In Vivo Anticancer Drug Screen. Data for tumor model Lewis Lung Carcinoma (intramuscular) in B6D2F1 (BDF1) mice. The method, boiled down:
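Mice carrying transplantable tumours received test compound. Survival or tumour size was recorded and expressed as the treated-group value (T) divided by the vehicle-treated control-group value (C).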

Molecules are shown by their SMILES. Values joined by “and” are separate entries in the source; they are usually repeats but may differ in a detail not shown here. Equal entries are not always repeated. Inconclusive results are not listed.

As to `C1CN1c1nc(N2CC2)nc(N2CC2)n1`, the T/C by setting is: (endpoint: mean tumor weight (est.), dose: 0.06 mg/kg/injection, schedule: Q01DX011 (ip), vehicle: saline, higher = larger tumour) 78 % of control; (endpoint: mean tumor weight (est.), dose: 0.12 mg/kg/injection, schedule: Q01DX011 (ip), vehicle: saline, higher = larger tumour) 67 % of control; (endpoint: mean tumor weight (est.), dose: 0.25 mg/kg/injection, schedule: Q01DX011 (ip), vehicle: saline, higher = larger tumour) 37 % of control; (endpoint: mean tumor weight (est.), dose: 0.5 mg/kg/injection, schedule: Q01DX011 (ip), vehicle: saline, higher = larger tumour) 37 % of control; (endpoint: mean tumor weight, dose: 0.12 mg/kg/injection, schedule: Q01DX011 (ip), vehicle: saline, higher = larger tumour) 73 % of control; (endpoint: mean tumor weight, dose: 0.25 mg/kg/injection, schedule: Q01DX011 (ip), vehicle: saline, higher = larger tumour) 73 % of control. In addition, the T/C was 97 % of control (endpoint: median survival time, dose: 0.06 mg/kg/injection, schedule: Q01DX011 (ip), vehicle: saline, higher = longer survival); 116 % of control (endpoint: median survival time, dose: 0.1 mg/kg/injection, schedule: Q01DX011 (ip), vehicle: saline, higher = longer survival); 100 % of control and 106 % of control (endpoint: median survival time, dose: 0.12 mg/kg/injection, schedule: Q01DX011 (ip), vehicle: saline, higher = longer survival); 106 % of control (endpoint: median survival time, dose: 0.2 mg/kg/injection, schedule: Q01DX011 (ip), vehicle: saline, higher = longer survival); 110 % of control (endpoint: median survival time, dose: 0.25 mg/kg/injection, schedule: Q01DX011 (ip), vehicle: saline, higher = longer survival); 89 % of control (endpoint: median survival time, dose: 0.4 mg/kg/injection, schedule: Q01DX011 (ip), vehicle: saline, higher = longer survival). Moreover, where the note is “endpoint: median survival time, dose: 0.5 mg/kg/injection, schedule: Q01DX011 (ip), vehicle: saline, higher = longer survival”, the T/C was 122 % of control.

For `CC(=O)C(O)N1C(=O)C=CC1=O` (stereo unspecified), the T/C by setting is: (endpoint: median survival time, dose: 0.62 mg/kg/injection, schedule: Q01DX011 (ip), vehicle: water, higher = longer survival) 88 % of control; (endpoint: median survival time, dose: 1.25 mg/kg/injection, schedule: Q#A X022 (ip), vehicle: water, higher = longer survival) 120 % of control; (endpoint: median survival time, dose: 2.5 mg/kg/injection, schedule: Q01DX011 (ip), vehicle: water, higher = longer survival) 123 % of control; (endpoint: median survival time, dose: 2.5 mg/kg/injection, schedule: Q#A X022 (ip), vehicle: water, higher = longer survival) 120 % of control; (endpoint: median survival time, dose: 5.0 mg/kg/injection, schedule: Q#A X022 (ip), vehicle: water, higher = longer survival) 113 % of control.

As to `Nc1nc(=O)n(C2OC(CO)C(O)C2O)cc1F` (stereo unspecified), the T/C reads like this: (endpoint: median survival time, dose: 4.0 mg/kg/injection, schedule: Q01DX011 (ip), vehicle: saline, higher = longer survival) 98 % of control; (endpoint: median survival time, dose: 8.0 mg/kg/injection, schedule: Q01DX011 (ip), vehicle: saline, higher = longer survival) 117 % of control; (endpoint: median survival time, dose: 16.0 mg/kg/injection, schedule: Q01DX011 (ip), vehicle: saline, higher = longer survival) 98 % of control; (endpoint: median survival time, dose: 32.0 mg/kg/injection, schedule: Q01DX011 (ip), vehicle: saline, higher = longer survival) 110 % of control.

In the case of `N[C@@H](Cc1ccc(N(CCCl)CCCl)cc1)C(=O)O`, the T/C by setting is: (endpoint: mean tumor weight, dose: 0.38 mg/kg/injection, schedule: Q01DX011 (ip), vehicle: other, higher = larger tumour) 55 % of control; (endpoint: mean tumor weight, dose: 0.38 mg/kg/injection, schedule: Q01DX011 (ip), vehicle: saline, higher = larger tumour) 86 % of control; (endpoint: mean tumor weight, dose: 0.75 mg/kg/injection, schedule: Q01DX011 (ip), vehicle: other, higher = larger tumour) 48 % of control; (endpoint: mean tumor weight, dose: 0.75 mg/kg/injection, schedule: Q01DX011 (ip), vehicle: saline, higher = larger tumour) 77 % of control; (endpoint: mean tumor weight, dose: 1.5 mg/kg/injection, schedule: Q01DX011 (ip), vehicle: other, higher = larger tumour) 69 % of control; (endpoint: mean tumor weight, dose: 3.0 mg/kg/injection, schedule: Q01DX011 (ip), vehicle: other, higher = larger tumour) 29 % of control. Besides, the T/C is 47 % of control and 59 % of control (endpoint: mean tumor weight, dose: 3.0 mg/kg/injection, schedule: Q01DX011 (ip), vehicle: saline, higher = larger tumour); 111 % of control (endpoint: median survival time, dose: 0.38 mg/kg/injection, schedule: Q01DX011 (ip), vehicle: other, higher = longer survival); 105 % of control and 112 % of control (endpoint: median survival time, dose: 0.38 mg/kg/injection, schedule: Q01DX011 (ip), vehicle: saline, higher = longer survival); 104 % of control and 116 % of control (endpoint: median survival time, dose: 0.6 mg/kg/injection, schedule: Q01DX011 (ip), vehicle: saline, higher = longer survival); 118 % of control (endpoint: median survival time, dose: 0.75 mg/kg/injection, schedule: Q01DX011 (ip), vehicle: other, higher = longer survival); 110 % of control and 112 % of control and 120 % of control (endpoint: median survival time, dose: 0.75 mg/kg/injection, schedule: Q01DX011 (ip), vehicle: saline, higher = longer survival). In addition, the T/C (endpoint: median survival time, dose: 1.2 mg/kg/injection, schedule: Q01DX011 (ip), vehicle: saline, higher = longer survival) was 108 % of control; the T/C (endpoint: median survival time, dose: 1.5 mg/kg/injection, schedule: Q01DX011 (ip), vehicle: other, higher = longer survival) is 101 % of control; the T/C (endpoint: median survival time, dose: 1.5 mg/kg/injection, schedule: Q01DX011 (ip), vehicle: saline, higher = longer survival) is 91 % of control; the T/C (endpoint: median survival time, dose: 2.5 mg/kg/injection, schedule: Q01DX011 (ip), vehicle: saline, higher = longer survival) is 103 % of control; the T/C (endpoint: median survival time, dose: 3.24 mg/kg/injection, schedule: Q01DX001 (ip), vehicle: saline, higher = longer survival) is 108 % of control; the T/C (endpoint: median survival time, dose: 5.4 mg/kg/injection, schedule: Q01DX001 (ip), vehicle: saline, higher = longer survival) is 119 % of control.

With `NC(C=O)C(O)C(O)C(O)CO` (stereo unspecified), the T/C is 77 % of control (endpoint: mean tumor weight (est.), dose: 750.0 mg/kg/injection, schedule: Q01DX011 (ip), vehicle: saline, higher = larger tumour); 93 % of control (endpoint: mean tumor weight (est.), dose: 1500.0 mg/kg/injection, schedule: Q01DX011 (ip), vehicle: saline, higher = larger tumour); 89 % of control (endpoint: mean tumor weight (est.), dose: 3000.0 mg/kg/injection, schedule: Q01DX011 (ip), vehicle: saline, higher = larger tumour); 104 % of control (endpoint: median survival time, dose: 1500.0 mg/kg/injection, schedule: Q01DX011 (ip), vehicle: saline, higher = longer survival); 104 % of control (endpoint: median survival time, dose: 3000.0 mg/kg/injection, schedule: Q01DX011 (ip), vehicle: saline, higher = longer survival).

With `O=[N+]([O-])c1cc(S(=O)(=O)OCC2CO2)ccc1Cl` (stereo unspecified), the T/C (endpoint: mean tumor weight (est.), dose: 6.25 mg/kg/injection, schedule: Q01DX011 (ip), vehicle: saline with Tween-80, higher = larger tumour) was 66 % of control; the T/C (endpoint: mean tumor weight (est.), dose: 12.5 mg/kg/injection, schedule: Q01DX011 (ip), vehicle: saline with Tween-80, higher = larger tumour) is 70 % of control; the T/C (endpoint: mean tumor weight (est.), dose: 25.0 mg/kg/injection, schedule: Q01DX011 (ip), vehicle: saline with Tween-80, higher = larger tumour) is 47 % of control; the T/C (endpoint: median survival time, dose: 6.25 mg/kg/injection, schedule: Q01DX011 (ip), vehicle: saline with Tween-80, higher = longer survival) was 100 % of control; the T/C (endpoint: median survival time, dose: 12.5 mg/kg/injection, schedule: Q01DX011 (ip), vehicle: saline with Tween-80, higher = longer survival) is 90 % of control; the T/C (endpoint: median survival time, dose: 25.0 mg/kg/injection, schedule: Q01DX011 (ip), vehicle: saline with Tween-80, higher = longer survival) was 101 % of control.
